We go through 12 compounds from ChEMBL document CHEMBL3991601, “The target landscape of clinical kinase drugs” (Science, 2017).

Calls of active or inactive are those of the source. Some results are limits rather than exact numbers.

The target in assay [1] is Eukaryotic translation initiation factor 2-alpha kinase 1 (Homo sapiens, UniProt Q9BQI3).
Assay [2] has as its target T1, Electron transfer flavoprotein subunit beta (Homo sapiens, UniProt P38117).
T1 sequence (P38117 whole entry): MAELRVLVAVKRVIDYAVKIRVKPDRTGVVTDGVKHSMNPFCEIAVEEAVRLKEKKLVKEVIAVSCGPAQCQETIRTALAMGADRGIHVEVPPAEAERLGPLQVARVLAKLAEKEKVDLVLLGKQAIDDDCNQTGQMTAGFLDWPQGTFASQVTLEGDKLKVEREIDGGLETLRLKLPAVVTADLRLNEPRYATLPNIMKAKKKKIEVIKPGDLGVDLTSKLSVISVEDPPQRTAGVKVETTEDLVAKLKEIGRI

In the next assay the target is Insulin receptor (Homo sapiens, UniProt P06213).
Sequence of Insulin receptor (P06213 28-758 limits assumed): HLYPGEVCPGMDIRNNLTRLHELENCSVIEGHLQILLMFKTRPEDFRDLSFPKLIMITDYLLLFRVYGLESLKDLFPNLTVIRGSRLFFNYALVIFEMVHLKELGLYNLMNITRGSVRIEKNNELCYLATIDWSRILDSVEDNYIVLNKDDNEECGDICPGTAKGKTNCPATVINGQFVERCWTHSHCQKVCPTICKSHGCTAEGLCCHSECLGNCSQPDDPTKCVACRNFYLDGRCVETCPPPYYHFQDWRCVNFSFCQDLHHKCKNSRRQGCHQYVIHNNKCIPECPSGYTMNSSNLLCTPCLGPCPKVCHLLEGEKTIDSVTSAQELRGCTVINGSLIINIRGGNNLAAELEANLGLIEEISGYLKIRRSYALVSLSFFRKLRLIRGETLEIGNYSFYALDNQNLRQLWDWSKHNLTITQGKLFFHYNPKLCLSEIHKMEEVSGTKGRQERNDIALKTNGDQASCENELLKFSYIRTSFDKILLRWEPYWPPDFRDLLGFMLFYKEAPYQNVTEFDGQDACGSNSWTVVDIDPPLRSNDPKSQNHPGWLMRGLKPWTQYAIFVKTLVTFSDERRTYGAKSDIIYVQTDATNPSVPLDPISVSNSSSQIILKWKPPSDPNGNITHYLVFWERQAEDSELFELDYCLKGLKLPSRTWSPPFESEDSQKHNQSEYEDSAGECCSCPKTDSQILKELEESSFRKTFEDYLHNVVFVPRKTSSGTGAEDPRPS
Sequence of Insulin receptor (P06213 763-1382 limits assumed): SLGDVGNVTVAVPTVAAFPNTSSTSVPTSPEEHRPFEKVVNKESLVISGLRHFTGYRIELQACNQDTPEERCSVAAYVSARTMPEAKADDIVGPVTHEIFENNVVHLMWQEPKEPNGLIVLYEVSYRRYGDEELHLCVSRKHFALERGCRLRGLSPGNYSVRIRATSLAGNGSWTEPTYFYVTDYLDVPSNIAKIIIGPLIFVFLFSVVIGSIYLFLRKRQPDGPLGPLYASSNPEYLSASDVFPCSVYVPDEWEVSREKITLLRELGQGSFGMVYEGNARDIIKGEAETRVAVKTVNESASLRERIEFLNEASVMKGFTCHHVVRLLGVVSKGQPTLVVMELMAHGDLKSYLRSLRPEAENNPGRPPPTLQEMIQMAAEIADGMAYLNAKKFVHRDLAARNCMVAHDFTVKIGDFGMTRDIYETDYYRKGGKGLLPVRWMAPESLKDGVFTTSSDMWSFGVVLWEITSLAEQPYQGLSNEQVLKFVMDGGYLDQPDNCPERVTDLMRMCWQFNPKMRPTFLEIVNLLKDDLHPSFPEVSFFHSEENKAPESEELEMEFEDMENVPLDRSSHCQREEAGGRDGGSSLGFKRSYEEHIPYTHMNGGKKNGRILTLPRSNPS
Assay [3] has as its target T2, Mitogen-activated protein kinase kinase kinase kinase 2 (Homo sapiens, UniProt Q12851).
T2 sequence (Q12851 whole entry): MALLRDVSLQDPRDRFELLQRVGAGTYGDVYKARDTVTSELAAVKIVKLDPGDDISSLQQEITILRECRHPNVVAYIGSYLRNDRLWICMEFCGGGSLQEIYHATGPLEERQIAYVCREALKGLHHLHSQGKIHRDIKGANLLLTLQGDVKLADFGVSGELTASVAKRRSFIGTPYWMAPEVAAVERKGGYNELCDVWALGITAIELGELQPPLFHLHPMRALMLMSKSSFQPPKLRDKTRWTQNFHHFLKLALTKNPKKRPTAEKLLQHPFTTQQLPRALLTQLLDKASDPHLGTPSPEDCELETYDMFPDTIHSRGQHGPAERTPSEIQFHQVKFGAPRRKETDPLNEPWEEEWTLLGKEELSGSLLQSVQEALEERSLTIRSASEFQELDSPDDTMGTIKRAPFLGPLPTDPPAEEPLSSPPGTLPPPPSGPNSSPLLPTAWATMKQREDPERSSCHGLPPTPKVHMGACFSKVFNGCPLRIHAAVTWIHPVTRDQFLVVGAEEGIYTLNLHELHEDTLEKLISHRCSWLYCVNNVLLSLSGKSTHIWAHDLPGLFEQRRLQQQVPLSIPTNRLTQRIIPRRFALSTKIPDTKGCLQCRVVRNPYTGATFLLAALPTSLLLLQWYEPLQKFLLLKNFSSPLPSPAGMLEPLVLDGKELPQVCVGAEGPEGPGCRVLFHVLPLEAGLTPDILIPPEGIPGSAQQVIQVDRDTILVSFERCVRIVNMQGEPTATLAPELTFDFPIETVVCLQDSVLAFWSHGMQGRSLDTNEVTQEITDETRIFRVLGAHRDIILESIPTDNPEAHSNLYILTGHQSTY

Assay [4] concerns the target Mitogen-activated protein kinase kinase kinase kinase 4 (Homo sapiens, UniProt O95819).
Assay [5] addresses T3, DNA replication licensing factor MCM4 (Homo sapiens, UniProt P33991).
T3 sequence (P33991 whole entry): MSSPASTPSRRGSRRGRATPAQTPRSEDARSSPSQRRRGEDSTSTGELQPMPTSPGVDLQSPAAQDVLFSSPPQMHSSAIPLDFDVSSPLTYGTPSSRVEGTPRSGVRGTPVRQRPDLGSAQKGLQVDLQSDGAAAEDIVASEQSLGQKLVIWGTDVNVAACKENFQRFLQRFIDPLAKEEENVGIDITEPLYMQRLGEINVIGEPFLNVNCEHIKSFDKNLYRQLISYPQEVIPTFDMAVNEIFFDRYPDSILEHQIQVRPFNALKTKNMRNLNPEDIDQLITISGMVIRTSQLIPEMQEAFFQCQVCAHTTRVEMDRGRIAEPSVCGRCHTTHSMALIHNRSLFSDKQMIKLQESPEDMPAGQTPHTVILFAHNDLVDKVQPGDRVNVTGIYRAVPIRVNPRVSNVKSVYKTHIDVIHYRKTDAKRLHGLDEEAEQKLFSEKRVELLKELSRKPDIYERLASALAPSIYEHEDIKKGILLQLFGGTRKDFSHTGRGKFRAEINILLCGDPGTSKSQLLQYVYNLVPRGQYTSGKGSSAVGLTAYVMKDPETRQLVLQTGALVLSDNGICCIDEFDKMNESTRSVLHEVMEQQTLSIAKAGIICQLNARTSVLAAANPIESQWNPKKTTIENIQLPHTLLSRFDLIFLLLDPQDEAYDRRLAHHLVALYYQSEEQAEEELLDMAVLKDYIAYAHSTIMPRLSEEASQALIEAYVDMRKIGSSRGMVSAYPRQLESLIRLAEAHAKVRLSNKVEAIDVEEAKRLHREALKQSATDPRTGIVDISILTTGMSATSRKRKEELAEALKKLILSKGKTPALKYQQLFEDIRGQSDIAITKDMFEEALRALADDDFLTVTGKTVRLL

In assay [6] the target is T4, Serine/threonine-protein kinase D2 (Homo sapiens, UniProt Q9BZL6).
T4 sequence (Q9BZL6 whole entry): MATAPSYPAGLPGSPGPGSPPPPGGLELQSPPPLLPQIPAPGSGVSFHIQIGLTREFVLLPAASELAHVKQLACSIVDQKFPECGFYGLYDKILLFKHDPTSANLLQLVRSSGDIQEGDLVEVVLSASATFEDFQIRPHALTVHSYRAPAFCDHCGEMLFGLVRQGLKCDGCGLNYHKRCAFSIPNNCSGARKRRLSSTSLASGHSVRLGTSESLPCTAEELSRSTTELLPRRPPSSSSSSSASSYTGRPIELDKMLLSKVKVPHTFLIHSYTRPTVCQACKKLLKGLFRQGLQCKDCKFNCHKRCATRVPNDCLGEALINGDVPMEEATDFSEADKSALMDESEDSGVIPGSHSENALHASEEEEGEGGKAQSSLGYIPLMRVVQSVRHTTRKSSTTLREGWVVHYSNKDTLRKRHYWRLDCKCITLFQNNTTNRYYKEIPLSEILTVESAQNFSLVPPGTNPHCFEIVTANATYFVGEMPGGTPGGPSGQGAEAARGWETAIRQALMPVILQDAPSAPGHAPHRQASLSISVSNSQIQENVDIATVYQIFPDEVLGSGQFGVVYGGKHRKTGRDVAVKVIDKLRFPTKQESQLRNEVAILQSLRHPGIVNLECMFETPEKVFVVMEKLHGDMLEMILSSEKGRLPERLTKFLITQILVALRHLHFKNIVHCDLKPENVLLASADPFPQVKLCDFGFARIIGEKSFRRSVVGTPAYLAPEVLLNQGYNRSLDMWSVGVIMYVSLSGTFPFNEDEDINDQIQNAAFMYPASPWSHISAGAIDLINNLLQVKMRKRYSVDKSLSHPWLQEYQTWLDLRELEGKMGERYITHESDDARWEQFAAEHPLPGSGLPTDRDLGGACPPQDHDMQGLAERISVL

Assay [7] has as its target 26S proteasome regulatory subunit 6B (Homo sapiens, UniProt P43686).
Note: in the data inactive means no Kd found up to 30 µM.

Sequence of Mitogen-activated protein kinase kinase kinase kinase 4 (O95819 whole entry): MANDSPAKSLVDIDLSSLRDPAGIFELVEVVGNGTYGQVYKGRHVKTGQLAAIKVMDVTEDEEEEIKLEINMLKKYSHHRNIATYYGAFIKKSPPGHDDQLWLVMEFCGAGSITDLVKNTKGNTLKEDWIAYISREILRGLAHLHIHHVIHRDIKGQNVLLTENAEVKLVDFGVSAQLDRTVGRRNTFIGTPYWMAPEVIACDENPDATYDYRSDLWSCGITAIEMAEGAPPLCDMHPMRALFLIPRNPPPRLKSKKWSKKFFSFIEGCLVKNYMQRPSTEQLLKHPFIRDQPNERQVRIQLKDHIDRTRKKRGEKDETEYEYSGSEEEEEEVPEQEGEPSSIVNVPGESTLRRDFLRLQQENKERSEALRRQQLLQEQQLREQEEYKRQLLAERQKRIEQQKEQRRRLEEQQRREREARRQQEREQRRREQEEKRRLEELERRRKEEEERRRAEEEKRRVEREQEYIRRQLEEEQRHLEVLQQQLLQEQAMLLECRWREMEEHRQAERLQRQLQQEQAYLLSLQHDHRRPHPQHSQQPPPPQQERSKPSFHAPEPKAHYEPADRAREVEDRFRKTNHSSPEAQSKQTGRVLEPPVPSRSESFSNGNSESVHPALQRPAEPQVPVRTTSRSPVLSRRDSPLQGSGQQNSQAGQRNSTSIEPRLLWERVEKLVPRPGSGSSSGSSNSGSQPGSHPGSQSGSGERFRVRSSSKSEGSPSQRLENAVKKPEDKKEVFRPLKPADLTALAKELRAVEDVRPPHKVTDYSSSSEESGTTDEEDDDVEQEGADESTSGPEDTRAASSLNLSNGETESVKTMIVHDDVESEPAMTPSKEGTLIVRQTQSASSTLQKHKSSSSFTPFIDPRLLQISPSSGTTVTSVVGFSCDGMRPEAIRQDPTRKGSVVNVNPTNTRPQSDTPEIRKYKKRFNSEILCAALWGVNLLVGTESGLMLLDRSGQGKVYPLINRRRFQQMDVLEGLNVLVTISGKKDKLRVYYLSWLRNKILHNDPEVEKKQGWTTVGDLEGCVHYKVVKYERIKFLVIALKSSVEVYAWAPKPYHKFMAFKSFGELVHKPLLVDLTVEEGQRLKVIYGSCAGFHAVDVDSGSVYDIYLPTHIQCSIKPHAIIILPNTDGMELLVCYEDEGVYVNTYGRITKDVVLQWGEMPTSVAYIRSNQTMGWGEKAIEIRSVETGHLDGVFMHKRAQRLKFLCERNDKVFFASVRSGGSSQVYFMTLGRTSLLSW
Sequence of Eukaryotic translation initiation factor 2-alpha kinase 1 (Q9BQI3 whole entry): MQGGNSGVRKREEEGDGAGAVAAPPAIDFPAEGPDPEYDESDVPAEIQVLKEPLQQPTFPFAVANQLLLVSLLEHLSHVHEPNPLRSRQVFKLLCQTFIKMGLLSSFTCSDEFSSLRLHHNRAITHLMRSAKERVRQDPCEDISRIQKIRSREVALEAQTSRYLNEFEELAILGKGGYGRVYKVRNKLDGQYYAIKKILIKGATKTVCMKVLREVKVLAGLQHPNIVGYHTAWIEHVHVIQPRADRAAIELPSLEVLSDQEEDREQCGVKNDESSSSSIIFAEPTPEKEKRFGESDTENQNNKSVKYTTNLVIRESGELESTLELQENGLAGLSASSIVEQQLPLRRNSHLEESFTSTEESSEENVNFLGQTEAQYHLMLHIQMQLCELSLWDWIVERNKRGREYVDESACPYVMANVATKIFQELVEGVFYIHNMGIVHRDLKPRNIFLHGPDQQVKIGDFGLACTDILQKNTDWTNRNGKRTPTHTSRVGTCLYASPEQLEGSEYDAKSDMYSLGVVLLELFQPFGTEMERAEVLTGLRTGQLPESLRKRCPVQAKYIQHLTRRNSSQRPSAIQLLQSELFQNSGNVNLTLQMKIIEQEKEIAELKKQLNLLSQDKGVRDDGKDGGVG
Sequence of 26S proteasome regulatory subunit 6B (P43686 whole entry): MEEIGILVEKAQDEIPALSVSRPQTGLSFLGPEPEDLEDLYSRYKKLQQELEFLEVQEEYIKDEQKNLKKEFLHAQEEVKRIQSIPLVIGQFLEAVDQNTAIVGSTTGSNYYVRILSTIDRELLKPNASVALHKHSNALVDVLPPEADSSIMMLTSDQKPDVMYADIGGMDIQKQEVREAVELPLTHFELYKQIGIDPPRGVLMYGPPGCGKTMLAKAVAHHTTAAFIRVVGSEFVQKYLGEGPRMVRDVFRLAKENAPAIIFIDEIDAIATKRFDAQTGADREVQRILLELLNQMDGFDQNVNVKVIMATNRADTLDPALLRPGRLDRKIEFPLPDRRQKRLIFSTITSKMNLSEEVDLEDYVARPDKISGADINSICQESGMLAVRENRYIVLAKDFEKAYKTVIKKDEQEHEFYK

By Kd is commonly meant the constant that tells how readily two partners part at equilibrium. For `COc1cccc2cc(-c3nc([C@H]4CC[C@H](C(=O)O)CC4)n4ncnc(N)c34)[nH]c12` [OSI-027], the Kd (in assay [1]; in assay [2]; on Insulin receptor; in assay [3]; in assay [4]; in assay [5]) was > 30 µM (inactive) throughout. For the same compound, the Kd in assay [6] and in assay [7] was > 30 µM (inactive) each time.
`O=C(O)c1ccc2c(c1)nc(Nc1cccc(Cl)c1)c1ccncc12` [SILMITASERTIB]: the Kd in assay [1] was 1.66 µM (active); in assay [2], > 30 µM (inactive); at Insulin receptor, > 30 µM (inactive); in assay [3] it was > 30 µM (inactive); in assay [4] it was > 30 µM (inactive); in assay [5], > 30 µM (inactive). The Kd in assay [6] and in assay [7] was > 30 µM (inactive) each time.
`c1cc(OCCN2CCCCC2)cc(-c2n[nH]c3ccc(-c4nc[nH]n4)cc23)c1` [CC-401]: the Kd in assay [1] was > 30 µM (inactive); in assay [2], > 30 µM (inactive); at Insulin receptor it was > 30 µM (inactive); in assay [3], > 30 µM (inactive); in assay [4], 4.17 µM (active); in assay [5], > 30 µM (inactive). Besides, the Kd was 0.056 µM (active) in assay [6] and > 30 µM (inactive) in assay [7].
With `COc1cc2ncnc(Nc3ccc(O)cc3)c2cc1OC` [WHI-P131], the Kd (in assay [1]; in assay [2]; on Insulin receptor; in assay [3]; in assay [4]; in assay [5]) was > 30 µM (inactive) in each case. Also, the Kd in assay [6] and in assay [7] was > 30 µM (inactive) each time.
On to `CC[C@@](C)(Nc1ccnc(-c2c[nH]c3ncccc23)n1)C(=O)NCC(F)(F)F` [DECERNOTINIB], for which the Kd (in assay [1]; in assay [2]; at Insulin receptor; in assay [3]; in assay [4]; in assay [5]) was > 30 µM (inactive) each time. The Kd in assay [6] and in assay [7] was > 30 µM (inactive) in each case.
In the case of `O=S(=O)(c1cccc2c(O)nccc12)N1CCCNCC1` [HYDROXYFASUDIL], the Kd (in assay [1]; in assay [2]; at Insulin receptor; in assay [3]; in assay [4]; in assay [5]) was > 30 µM (inactive) each time. The Kd in assay [6] was 2.54 µM (active); in assay [7], > 30 µM (inactive).
For `NC(=O)c1ccc(N(C(N)=O)c2c(F)cccc2F)nc1-c1ccc(F)cc1F` [VX-702], the Kd (in assay [1]; in assay [2]; on Insulin receptor; in assay [3]; in assay [4]; in assay [5]) was > 30 µM (inactive) throughout. Further, the Kd in assay [6] and in assay [7] was > 30 µM (inactive) each time.
As to `C=CC(=O)Nc1cc(Nc2nccc(-c3cn(C)c4ccccc34)n2)c(OC)cc1N(C)CCN(C)C` [OSIMERTINIB], the Kd (in assay [1]; in assay [2]; on Insulin receptor; in assay [3]; in assay [4]; in assay [5]) was > 30 µM (inactive) throughout. The Kd in assay [6] and in assay [7] was > 30 µM (inactive) each time.
For the compound `COCCN1CCN(Cc2ccc(-c3n[nH]c4c3C(=O)c3c(NC(=O)NN5CCOCC5)cccc3-4)cc2)CC1` [RGB-286638], the Kd in assay [1] was 3.8 µM (active); in assay [2] it was > 30 µM (inactive); at Insulin receptor, > 30 µM (inactive); in assay [3] it was > 30 µM (inactive); in assay [4], 0.127 µM; in assay [5], > 30 µM (inactive). Further, the figures for the Kd in assay [6] and in assay [7] were 0.195 µM (active) and > 30 µM (inactive), respectively.
With `Cn1c(=O)c(F)c(Nc2ccc(I)cc2F)c2c(=O)n(C[C@@H](O)CO)cnc21` [TAK-733], the Kd (in assay [1]; in assay [2]; on Insulin receptor; in assay [3]; in assay [4]; in assay [5]) was > 30 µM (inactive) in each case. For the same compound, the Kd in assay [6] and in assay [7] was > 30 µM (inactive) in each case.
As to `COc1cc(Nc2ncc(F)c(Nc3ccc4c(n3)N(COP(=O)(O)O)C(=O)C(C)(C)O4)n2)cc(OC)c1OC` [FOSTAMATINIB], the Kd (in assay [1]; in assay [2]; on Insulin receptor; in assay [3]; in assay [4]; in assay [5]) was > 30 µM (inactive) throughout. The Kd in assay [6] and in assay [7] was > 30 µM (inactive) each time.
Turning to `C#Cc1cccc(Nc2ncnc3cc4c(cc23)OCCOCCOCCO4)c1` [ICOTINIB], the Kd (in assay [1]; in assay [2]; at Insulin receptor; in assay [3]; in assay [4]; in assay [5]) was > 30 µM (inactive) in each case. For the same compound, the Kd in assay [6] and in assay [7] was > 30 µM (inactive) in each case.
